Data published in patent US10045966B2, “Compositions and methods for treating microbial infections” (Vanderbilt Univeristy, priority 2012, dated 2018).
Entries after “also recorded” stand apart in the source; their conditions may differ.

Legend:
[1] = test system: Corynebacterium diphtheriae; assay: Adaptation to heme toxicity, CFU enumeration; assay type: cell-based; settings: C. diphtheriae, subculture into 15 μM heme, versus non-adapted cultures
[2] = test system: Staphylococcus haemolyticus; assay: Adaptation to heme toxicity, growth curve; assay type: cell-based; settings: S. haemolyticus, subculture into 30 μM heme, versus non-adapted cultures
HssRS = assay: XylE reporter assay (hrtAB promoter-xylE fusion) for HssRS activation; assay type: cell-based, S. aureus; settings: for HssRS activation in heme auxotroph ΔhemB: S. aureus hemB::ermC (ΔhemB) carrying phrt.xylE; for HssRS activation (XylE reporter activity): S. aureus carrying phrt.xylE
Procedure: (§1) FIGS. 9A-9C describe a high throughput screen that identifies small molecule activators of HssRS. (A) A secondary screen consisting of a XylE reporter assay verified the activity of the top 110 hits from the primary screen, including '882. Triplicate cultures of S. aureus WT and ΔhssR transformed with the hrtAB promoter-xylE fusion-containing plasmid (phrt.xylE) were grown in the presence of the indicated additive and XylE activity was measured. (B) The structure of lead compound VU0038882 (′882). (C) '882 was confirmed as a hit in a tertiary screen that measured the ability of the compound to pre-adapt S. aureus for growth in 20 μM heme. Triplicate cultures of WT S. aureus were grown overnight in medium containing the indicated additive and sub-cultured into medium containing 20 μM heme. Growth was monitored by measuring the optical density at 600 nm (OD600) over time. (A and C) Error bars represent one standard deviation from the mean.
The present inventors designed and conducted a screening assay to identify activators of HssRS. With reference to FIG. 2A, a reporter plasmid containing the luxABCDE operon from Photorhabdus luminescens driven by the hrtAB promoter (phrt.lux) was used to screen 160,000 compounds from the VICB small molecule library with luminescence. With reference to FIG. 2B, 110 of the top hits from the primary screen were confirmed in a secondary screen using a xylE reporter gene driven by the hrtAB promoter (phrt.xylE). […] Activation of HssRS by a sub-toxic concentration of heme protects S. aureus from a subsequent toxic concentration of heme by upregulating HrtAB. The inhibition of growth due to heme toxicity is determined by measuring the optical density of bacterial cultures at 600 nm. In each screen the present inventors identified hits by comparing their activity to that of heme. […] Cultures of wildtype and ΔhssR carrying phrt.xylE were assayed for XylE activity upon '8882 treatment. The screening method designed by the present inventors as able to successfully identify small molecule activators of the S. aureus heme stress response.
Analogs of '882 were divided into two classes, and chemical modifications of both the Western-naphthol ring and the Eastern-furan ring were conducted. Each set was screened against the XylE assay with heme and '882 as standards for comparison. […] Examples of synthesized compounds and their activity classifications are shown above.

S. aureus [3] = assay type: cell-based; settings: 24 h; for Viable and gentamicin-resistant bacteria, single agent: treatment alone
Procedure: (A) S. aureus wildtype (WT, dashed lines), the menaquinone auxotroph (ΔmenB, dotted lines), and the heme auxotroph hemB::ermC (ΔhemB, solid lines) were grown in triplicate under aerobic (aer, black lines) and anaerobic (ana, gray lines) conditions in the presence of the indicated log of the concentration of '882 (μM). After 18 h the absorbance at 600 nm (OD600) was measured and normalized to vehicle (DMSO) treated bacteria. Curves were fit by nonlinear regression analysis and absolute log IC50 values were calculated in Prism with the top set at 1.0 and the bottom set at 0.15. […] Error bars represent the standard error of the mean. (B) Triplicate cultures of S. aureus were grown in the presence of the indicated additive. […] Shown is the average of three independent experiments. Error bars represent one standard deviation from the mean. (C) S. aureus was grown in the presence of vehicle (DMSO) or 40 μM '882 and coated in serum. Murine PMNs were elicited with casein and harvested from the peritoneum. The ability of neutrophils to kill S. aureus in the presence of '882 was assessed by comparing CFUs recovered from neutrophil-exposed S. aureus to those recovered from identical conditions lacking neutrophils. The mean of at least six independent experiments performed in triplicate are represented by the data; error bars represent standard error of the mean and significance was determined by a two-tailed Student's t-test.
S. aureus SCVs are obligate fermenters that emerge in response to aminoglycoside treatment. […] To test this, S. aureus was grown in the presence of vehicle, gentamicin, '882, or a combination of gentamicin and '882, and the evolution of gentamicin resistance was monitored.

intracellular heme = assay: Intracellular heme quantification; assay type: cell-based, S. aureus; settings: for Intracellular (endogenous) heme levels: pyridine hemochromogen assay / UPLC-MS
Procedure: (B) Heme levels in triplicate cultures of S. aureus treated with the indicated additive were quantified using the pyridine hemochromogen assay and normalized to the concentration of protein in the whole cell lysates. […] (A and B) Error bars represent one standard deviation from the mean. (C) Exact-mass mass spectrometric analysis was used in conjunction with UPLC to detect and quantify heme in protoplasts from cells treated with 40 μM '882 or vehicle grown in triplicate. Measured heme molecules were referenced to estimated CFUs per pellet, factoring in dilutions. Dead or lysed cells would also contribute to the measurement. […] Samples measured in duplicate or triplicate injections had typical errors of <5% between analytical replicates. Error bars represent the standard deviation and significance was calculated using a two-tailed Student's t-test.
Heme levels were quantified using the pyridine hemochromogen assay and normalized to the concentration of protein in the whole cell lysates.
To directly test if '882 exposure increases heme levels within staphylococci, intracellular heme abundance was measured using two distinct approaches. First, intracellular heme levels were quantified using a commercially available heme quantification kit (BioAssay systems).

S. aureus [4] = assay: Nitric oxide stress of S. aureus; assay type: cell-based; settings: simultaneous exposure to NO.
Procedure: (§2) The effects of '8882 on fermentation was studied. With reference to FIG. 7A, S. aureus was grown in the presence of the indicated concentration of '8882 or cyanide. Growth was monitored over time by measuring the optical density at 600 nm and normalized to vehicle treated S. aureus. With reference to FIG. 7B, the concentration of glucose and lactate was measured in supernatants collected from S. aureus cultures containing vehicle or '8882. With reference to FIG. 7C, S. aureus grown in the presence or absence of '8882 was subjected to nitric oxide stress after 5 hours of growth. With reference to FIG. 7D, S. aureus was incubated with murine neutrophils in media containing either vehicle or '8882. Bacterial viability was determined by enumerating colony forming units on solid media.

S. aureus [5] = assay: Pre-adaptation for heme toxicity, growth curve analysis; assay type: cell-based; settings: overnight pre-treatment, subculture into 20 μM heme
Procedure: as §1, with “(A and C) Error bars represent one standard deviation from the mean.” left out
The present inventors designed and conducted a screening assay to identify activators of HssRS. With reference to FIG. 2A, a reporter plasmid containing the luxABCDE operon from Photorhabdus luminescens driven by the hrtAB promoter (phrt.lux) was used to screen 160,000 compounds from the VICB small molecule library with luminescence. […] The inhibition of growth due to heme toxicity is determined by measuring the optical density of bacterial cultures at 600 nm. […]

[6] = Chemical stability, rule of five and solubility; settings: free base and trifluoroacetate salt
C. diphtheriae = assay: Growth of C. diphtheriae; assay type: cell-based
S. aureus Newman = assay: Co-treatment with kanamycin, CFU enumeration after 24 h; assay type: cell-based; settings: TSB
Procedure: With reference to FIG. 8A, S. aureus Newman was cultured in TSB containing the indicated amount of kanamycin or '8882. After 24 h colony forming units (CFUs) were enumerated on solid medium. The dashed line indicates the limit of detection (LOD) and the asterisk denotes that two of the three replicates were below the LOD. Turning to FIG. 8B, 50 ul of each experimental groups was plated on TSA at a dilution of 1:100 except for the co-treatment group, which was plated undiluted. Two of the three co-treated replicates had no viable colonies.

S. aureus [7] = assay: Neutrophil killing of S. aureus; assay type: cell-based; settings: murine PMNs, 40 μM
IsdG = IsdG abundance by immunoblot as reporter of cytoplasmic heme; assay type: cell-based, S. aureus
Procedure: Wild type and ΔhemV S. aureus transformed with isdG driven under the constitutive Igt promoter (pIgt.isdG) were grown in the presence of increasing concentrations of '8882. Whole cell lysates, along with a protein standard, were blotted with anti IsdG polyclonal antisera and IsdG levels were quantified by densitometry.
Second, the intracellular abundance of the heme stabilized protein IsdG was used as a barometer of functional cytoplasmic heme levels (43), i.e., IsdG is a heme stabilized protein that can be used as a reporter for intracellular heme levels. With reference to FIG. 4A, S. aureus ΔisdG and ΔhemB were transformed with a plasmid that constitutively expresses IsdG (plgt.isdG). These strains were grown to stationary phase in the presence of the indicated concentration of '8882 or heme. Whole cell lysates were immunoblotted with anti-IsdG polyclonal antisera and bands were quantified using densitometry.
To determine if the endogenous heme produced as a result of '882 exposure is available for use in cellular processes, cytoplasmic heme availability was measured by quantifying intracellular levels of the cytoplasmic heme oxygenase IsdG. In the absence of exogenous heme, IsdG is rapidly degraded; however, heme binding stabilizes IsdG and reduces its proteolytic degradation. Therefore, the abundance of IsdG reflects the cytoplasmic levels of heme.

S. aureus [8] = assay type: cell-based; settings: for Growth of ΔmenB (cannot respire, solely ferments): S. aureus ΔmenB, aerobic and anaerobic
S. aureus [9] = assay: Fermentative activity: pH, D-glucose and lactate in culture supernatants; assay type: cell-based; settings: aerobic cultures
Procedure: FIGS. 12A-12C show examples of the present invention diminish fermentative activity. S. aureus was grown in triplicate under aerobic conditions in the presence of vehicle (black lines) or 40 μM '882 (gray lines). At the indicated time intervals, culture supernatants were sampled and the (A) pH, (B) D-glucose, and (C) D- and L-lactate were quantified. Error bars represent one standard deviation from the mean.
as §2

neutrophils = assay type: cell-based, Murine
[10] = Liver tissue level by Imaging Mass Spectrometry and HPLC-MS; settings: HPLC-MS of excised liver, 24 h post-infection
S. aureus [11] = assay: Systemic staphylococcal infection in mice, liver CFUs and abscesses; assay type: in vivo; settings: mice infected intravenously, intraperitoneal treatment, 96 h
Procedure: FIGS. 16A-16D show embodiments of the preset invention reduce S. aureus pathogenesis in vivo. Mice infected retroorbitally with S. aureus were treated intraperitoneally with vehicle (10% Tween 80) or '373. After 96 h mice were sacrificed and (A) CFUs and (B) surface abscesses were enumerated from the livers. Each marker represents an individual mouse. Data were collected from three independent experiments resulting in n=13 for vehicle and n=12 for '373-treated mice once the highest and lowest values were removed from each group. The horizontal line indicates the mean and the error bars represent the standard error of the mean. Statistical significance was determined by a two-tailed Student's t-test. Livers from mice treated with the indicated dose of '373 were harvested 24 h post-infection (1 h after the 2nd treatment), sectioned, and mounted on MALDI target plates (C). (D) Tissue sections were imaged by MALDI-MS/MS for accumulation of a fragment of '373 by MALDI-MS/MS (m/z 255.2→134). Spectra were acquired at 10 microscans per step. 5 laser shots were acquired per pixel and pixels were obtained every 100 μm.

For `C=CC1=C(C)c2cc3[n-]c(cc4[n-]c(cc5nc(cc1n2)C(C)=C5C=C)c(C)c4CCC(=O)O)c(CCC(=O)O)c3C.[Fe+2]` [heme, reference compound], the “Survival in heme after pre-treatment” value [1] was “improved survival in heme”, the “Survival in heme after pre-treatment” value [2] was “improved survival in heme” and the “HssRS activation in heme auxotroph ΔhemB” value (HssRS) was “activates HssRS in ΔhemB”.

In the case of gentamicin [reference compound], the “Viable and gentamicin-resistant bacteria, single agent” value (S. aureus [3]) is reported as “became resistant to gentamicin”.

In the case of `O=CC[C@@H](O)[C@H](O)[C@H](O)CO` [Compound 2dG, 2-deoxyglucose, reference compound], the “Intracellular (endogenous) heme levels” value (intracellular heme) is reported as “reduces endogenous heme levels”.

With `Oc1c(-c2cc(-c3ccco3)[nH]n2)ccc2ccccc12` ['882] the “Gentamicin-resistant colonies, combination with gentamicin” value (S. aureus [3]; combined with gentamicin) was “eliminated all detectable gentamicin-resistant colonies”, the “Reduction in bacterial viability, combination with gentamicin” value (S. aureus [3]; combined with gentamicin) was 5 log and the “Viable and gentamicin-resistant bacteria, single agent” value (S. aureus [3]) was “did not affect the number of viable or gentamicin-resistant bacteria”. For the same compound, the “Survival in heme after pre-treatment” value [1] was “improved survival in heme”, the “Antibacterial effect of simultaneous exposure with nitric oxide (NO.)” value (S. aureus [4]) was “more antibacterial than treatment with either molecule alone” and the “Pre-adaptation of S. aureus for heme toxicity” value (S. aureus [5]) was “pre-adapts S. aureus for heme toxicity”. The Chemical stability [6] was “good chemical stability”, the “Rule of five violations” value [6] was “no rule of five violations” and the Solubility ([6]; DMSO and aqueous solution) was “good solubility in DMSO and aqueous solution”. For the same compound, the “Increase of intracellular heme versus non-exposed bacteria” value (intracellular heme; commercial heme quantification kit (BioAssay systems)) was “approximately 10%”, the “Intracellular (endogenous) heme levels” value (intracellular heme) was “increase in a dose-responsive manner” and the “Growth of C. diphtheriae” value (C. diphtheriae) was “inhibits the growth of C. diphtheriae”. The “Survival in heme after pre-treatment” value [2] was “improved survival in heme”, the “Antibiotic efficacy on co-treatment with kanamycin” value (S. aureus Newman) was “improves antibiotic efficacy in vitro” and the “Neutrophil-dependent killing of S. aureus” value (S. aureus [7]) was “improves neutrophil-dependent killing of S. aureus”. For the same compound, the “HssRS activation (XylE reporter activity)” value (HssRS) was “activates the hrtAB promoter in a dose-responsive manner”, the “HssRS activation (XylE reporter activity)” value (HssRS; listed as '8882) was “most potent activator of HssRS” and the “HssRS activation in heme auxotroph ΔhemB” value (HssRS) was “does not activate HssRS in ΔhemB”. The “Intracellular abundance of IsdG” value (IsdG; S. aureus constitutively expressing IsdG) was “increases the abundance of IsdG in a concentration-dependent fashion”, the “Stabilization of IsdG in ΔhemB” value (IsdG; S. aureus ΔhemB) was “not stabilized” and the “Bacteriostatic or bacteriocidal (CFU input versus output)” value (S. aureus [8]) was “bacteriostatic to fermentatively growing staphylococci”. For the same compound, the “Concentration that halts S. aureus growth” value (S. aureus [8]) was “less than 5 μM”, the “Growth of ΔhemB (SCV deficient in heme biosynthesis)” value (S. aureus [8]; S. aureus ΔhemB) was “sensitive to '882” and the “Growth of ΔmenB (cannot respire, solely ferments)” value (S. aureus [8]) was “more susceptible to '882 toxicity than wildtype; also recorded: bacteriostatic”. The “Growth of wildtype S. aureus grown anaerobically” value (S. aureus [8]; anaerobic) was “growth was dramatically reduced”, the “Growth of S. aureus in combination with potassium cyanide (KCN)” value (S. aureus [8]; combined with KCN, aerobic) was “growth is inhibited, even under aerobic conditions” and the “Glycolytic / fermentative activity (acidification, D-glucose consumption, lactate production)” value (S. aureus [9]) was “reduced glycolytic activity”. For the same compound, the “Glycolytic / fermentative activity (acidification, D-glucose consumption, lactate production)” value (S. aureus [9]; listed as '8882) was “reduces the ability of S. aureus to ferment” and the Neutrophil viability (neutrophils) was “does not overtly affect neutrophil viability”.

In the case of `Oc1ccccc1-c1cc(-c2ccccc2F)[nH]n1` ['373], the “Pre-adaptation of S. aureus for heme toxicity” value (S. aureus [5]) is reported as “pre-adapt S. aureus for heme toxicity”, the “Liver tissue level versus dose” value [10] is reported as “linear relationship between tissue level and dose” and the “HssRS activation (XylE reporter activity)” value (HssRS) is reported as “activates HssRS”. For the same compound, the “Growth of ΔmenB (cannot respire, solely ferments)” value (S. aureus [8]) was “inhibits the growth of S. aureus ΔmenB, although to a lesser extent than '882”, the “Decrease in CFUs recovered from the livers versus vehicle” value (S. aureus [11]) was 1 log and the “Number of liver abscesses” value (S. aureus [11]) was “significant reduction in the number of liver abscesses”.
